Source: US10758473B2, “Extract of plant origin of globularia and method for obtaining said extract by in vitro plant culture” (Sederma, priority 2011, dated 2020)

Key:
[1] = molecular target: bovine serum albumin (BSA) (Bos taurus, UniProt P02769); assay: Non-enzymatic glycation of BSA; type: biochemical
Experimental: 1) Non-Enzymatic Glycation of BSA
This simple test reproduces in vitro a stress to which regular skin proteins are subjected: their functional alteration by a non-enzymatic glycation phenomenon.
The study model used is a bovine serum albumin (BSA), which is contacted with a physiological reducing sugar, the fructose, giving a spontaneous and slow reaction between the two molecules that can be accelerated by temperature. In this test, the BSA and fructose are incubated in the presence or absence of the test products at 50° C. for 7 days. The glycation end products have a natural fluorescence that can be quantified using a fluorimeter (λex=360 nm and λem=460 nm). 0.03% Aminoguanidine is used as a positive control of glycation inhibition.
The anti-glycation effect of the extract of Globularia cordifolia was studied using a protein model, BSA and a natural reducing sugar, fructose which glycates, i.e. binds, to the protein in a non-enzymatic manner. The product of this binding is fluorescent and is monitored with a recording system.

proteasome = assay: Residual proteasome activity in human dermal fibroblasts after H2O2 stress; type: cell-based; details: Trolox 500 μm
Description: Human dermal fibroblasts were placed or not (negative control) in contact with the Globularia cordifolia extract until they grew to confluence. The Globularia cordifolia extract was then removed and the cells were exposed to the oxidant model, hydrogen peroxide, to produce accelerated ageing. After this stage, the cells were again exposed to the Globularia cordifolia extract for 3 days and then were reseeded and subjected to a further oxidative stress to amplify the effect of the initial stress. The cells were then homogenized and the residual proteasome activity measured by monitoring cleavage of a model fluorescent peptide. Results were standardized by parallel measurement of protein.

intracellular peroxide = assay: Endogenous peroxides in human keratinocytes (DCFH-DA probe); type: cell-based; details: Trolox at 500 μm
Experimental: This factor can be measured reliably using a probe called DCFH-DA, whose characteristic is to fluoresce in contact with peroxides once it entered the cell. Confluence human keratinocytes were placed in contact or not (negative control) for 24 h with the Globularia cordifolia extract until they grew to confluence. The cells were then exposed to and metabolized the DCFH label in a buffer. The label can then react with both intracellular peroxides. The medium was then replaced with one containing or not the Globularia cordifolia extract and the oxidizing agent model hydrogen peroxide (neither the medium nor the Globularia cordifolia extract reacts directly with H2O2). Fluorescence was read in order to estimate the level of the intracellular peroxide which had reacted with the label. The number of cells was quantified using a nuclear labeling method (Hoechst 33258).

sirtuin-1 = assay: Intracellular sirtuin-1 in human keratinocytes (ELISA); type: cell-based; details: Trolox at 500 μm
Description: Hormetic effects such as calorie restriction or contact with hormetic molecules increase sirtuin enzymes and the lifespan of different organisms. The sirtuins act particularly on FOXO factor deacetylation and prevent triggering of the production of apoptotic proteins. The sirtuins also stimulate cellular anti-oxidant defenses and purification mechanisms (detoxification) and help to preserve mitochondrial function and therefore energy production. This increases survival and resistance to stresses. Human keratinocytes were cultured in the presence or absence of the Globularia cordifolia extract for 6 days and were then grinded and the intracellular levels of sirtuin-1 were measured using an ELISA method. Results were standardized by parallel measurement of total protein (BCA).

[2] = system: SOD (superoxide dismutase); assay: Intracellular SOD activity in human keratinocytes treated with hydrogen peroxide; type: cell-based; details: Trolox at 0.012%
Description: A preliminary test on the antioxidant skin potential had shown that human keratinocytes treated with the hydrogen peroxide, a model of oxidative stress, increased their intracellular activity of SOD (superoxide dismutase) by 22%*(p<0.01) compared to the negative control in the presence of the Globularia cordifolia extract.

[3] = system: mitochondrial membrane potential; assay: Mitochondrial membrane potential in fibroblasts after H2O2 stress; type: cell-based, human; details: Trolox at 500 μm
Experimental: Human dermal fibroblasts were placed in contact with the Globularia cordifolia extract according to the invention for 3 days. The cells were then exposed without said extract to an oxidative stress (hydrogen peroxide). After a further 3 days' contact with the Globularia cordifolia extract, the cells were again exposed to the same oxidative stress before being homogenized to measure residual intracellular creatine kinase activity. Activity was measured from the production of ATP from phosphocreatine and ADP. ATP is then measured from an enzymatic reaction leading to the formation of NADPH, readed at 340 nm. Results were standardized by measuring total protein (BCA). A fall in this membrane potential is a warning sign of ageing and cell death and it is therefore essential that this be maintained to preserve the mitochondrial ability to produce ATP. Membrane potential was measured using a specific label sensitive to mitochondrial proton micro-variations. The label exists in two forms, monomeric and polymeric, which have different emission spectra. A high membrane potential promotes the polymeric form. An increase in the monomer/polymer ratio (520 nm/590 nm) produces therefore a fall in Δψ. A high ratio is therefore less conducive to cell survival than a lower ratio. The same fibroblast cultures than used for creatine kinase there above were used.

creatine kinase = assay: Residual intracellular creatine kinase activity in human dermal fibroblasts after H2O2 stress; type: cell-based; details: Trolox at 500 μm
Description: Creatine kinase is a ubiquitous enzyme which exists in two isoforms in the skin. It is used to store energy in cells and enables tissues to respond to urgent energy requirements. This enzyme converts creatine into phosphocreatine using ATP which is converted back to ADP. When necessary, the enzyme works in the reverse direction and returns energy. Its activity falls with age as it is one of the preferred targets of reactive oxygen groups. Maintaining and increasing the activity of this enzyme is therefore desirable. Human dermal fibroblasts were placed in contact with the Globularia cordifolia extract according to the invention for 3 days. The cells were then exposed without said extract to an oxidative stress (hydrogen peroxide). After a further 3 days' contact with the Globularia cordifolia extract, the cells were again exposed to the same oxidative stress before being homogenized to measure residual intracellular creatine kinase activity. Activity was measured from the production of ATP from phosphocreatine and ADP. ATP is then measured from an enzymatic reaction leading to the formation of NADPH, readed at 340 nm. Results were standardized by measuring total protein (BCA).

Glutathion = Glutathion synthesis in keratinocytes; type: cell-based; details: Trolox at 0.012%
DPPH anti-radical test = type: biochemical; details: positive control, 0003% of caffeic acid
Description: 2) DPPH Anti-Radical Test The DPPH (1, 1-diphenyl-2-picryl hydrazyl) is a stable free radical which is widely used for the detection of free radical scavengers. This molecule by losing its radical character is converted to DPPH2 (1, 1-diphenyl-2-picryl hydrazine). This conversion is accompanied by discoloration (purple→yellow) which can be monitored over time by spectrophotometry at 517 nm.

[4] = Anti-singlet-oxygen test (Rose Bengal, visible light, uric acid destruction); type: biochemical; details: positive control, caffeic acid at 0002%
Description: Molecular oxygen (O2) plays a vital role as an acceptor of the respiratory chain terminal electrons. However, this metabolism and others, as well as external factors, such as UV radiations, lead to the occurrence of certain derivatives particularly reactive (singlet oxygen, hydroxyl radical, superoxide anion), which will cause oxidative damage to lipids, proteins and nucleic acids, even in healthy bodies. Singlet oxygen is one of these very energetic and highly reactive forms of oxygen. It is possible to produce experimentally in vitro singlet oxygen with dyes and UVA photons or visible light. The test presented thereafter uses the Rose Bengal, a dye and visible light. The purpose of this test is to evaluate the degradation of uric acid by singlet oxygen formed from the Rose Bengal, under the action of visible light. The visualization of the production of singlet oxygen is obtained by following the destruction of uric acid at 292 nm. In the presence of a compound capable of neutralizing singlet oxygen, this destruction will be slowed. The caffeic acid at 0002% is used as a positive control of an anti-singlet-oxygen activity Data in Table 3 below.

Sequence of bovine serum albumin (BSA) (P02769 25-607): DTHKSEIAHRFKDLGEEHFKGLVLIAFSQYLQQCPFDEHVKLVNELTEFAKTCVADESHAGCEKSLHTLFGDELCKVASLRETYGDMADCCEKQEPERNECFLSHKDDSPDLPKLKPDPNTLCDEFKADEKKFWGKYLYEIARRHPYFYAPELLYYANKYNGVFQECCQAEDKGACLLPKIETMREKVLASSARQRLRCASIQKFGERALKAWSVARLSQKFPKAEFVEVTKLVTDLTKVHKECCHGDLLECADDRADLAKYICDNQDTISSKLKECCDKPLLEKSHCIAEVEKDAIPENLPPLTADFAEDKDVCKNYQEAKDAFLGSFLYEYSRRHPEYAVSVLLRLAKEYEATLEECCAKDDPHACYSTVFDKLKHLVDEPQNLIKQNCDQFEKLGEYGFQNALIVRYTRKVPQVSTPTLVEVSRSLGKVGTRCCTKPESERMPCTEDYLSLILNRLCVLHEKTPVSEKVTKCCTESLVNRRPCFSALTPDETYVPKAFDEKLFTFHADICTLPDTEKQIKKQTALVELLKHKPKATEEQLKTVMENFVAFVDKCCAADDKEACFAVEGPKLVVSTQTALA

Q: Which “Glycation % Change, positive control” value ([1]; aminoguanidine at 0.03%) does the source give for `N=C(N)NN` [Aminoguanidine] here?
A: Positive control aminoguanidine at 0.03%: −85%; p < 0.01.

Q: And the glycation inhibition versus the control ([1]; positive control, 0.03% Aminoguanidine)?
A: 85%

Q: For `Cc1c(C)c2c(c(C)c1O)CCC(C)(C(=O)O)O2` (centres unmarked) [Trolox], which “proteasome activity % Change, positive control” value (proteasome) is on record?
A: Positive control Trolox 500 μm: +24%; (p < 0.05).

Q: What about the “Intracellular peroxide % Change, positive control” value (intracellular peroxide) of the same compound?
A: Positive control Trolox at 500 μm: −91%; (p < 0.01).

Q: What about the “Sirtuin-1 % Change, positive control” value (sirtuin-1) of the same compound?
A: Positive control Trolox at 500 μm: +27%; p < 0.05.

Q: And the “SOD, positive control” value [2]?
A: 21%

Q: What about the “Mitochondrial membrane potential % Change, positive control” value [3] of the same compound?
A: Positive control Trolox at 500 μm: +36%; p < 0.05.

Q: What about the “Creatin kinase activity % Change, positive control” value (creatine kinase) of the same compound?
A: Positive control Trolox at 500 μm: +28%; p < 0.05.

Q: What about the “GSH, positive control” value (Glutathion) of the same compound?
A: 53%

Q: With `O=C(O)/C=C/c1ccc(O)c(O)c1` [caffeic acid] as the compound, how does the “anti-radical activity versus the control” value (DPPH anti-radical test) read?
A: −85%

Q: And the “anti-singlet-oxygen activity versus the control” value [4]?
A: +73%
